pIC50: −log10 of the molar value.
Legend:
CYP3A5 = target: T1, CYP3A5 (Homo sapiens, UniProt P20815); assay: Vivid CYP450 Screening Kit, recombinant CYP3A5; type: in vitro ADME
T1 construct: purchased Thermo Fisher Scientific
Procedure: (§1) CYP inhibitory assay was performed using Vivid CYP450 screening kit as described previously. The kits consist of microsomal fraction containing human CYP isoforms, human CYP reductase and in several cases cytochrome b5. Experiments were performed following the manufacturer’s protocol on black 96-well plates using kinetic mode. […] Then, the master mix (CYP isoenzyme with an NADPH regeneration system in buffer) was added in each well and plate was pre-incubated for 10 min. The reaction was started with the mixture of NADP^+ and Vivid substrate and the fluorescence of samples was measured in 1 min interval for 60 min using an Infinite M200 Pro microplate reader (Tecan, Männedorf, Switzerland). Data from linear phase (15 min) were used for data evaluation.

CYP2C19 = target: T2, CYP2C19 (Homo sapiens, UniProt P33261); assay: Vivid CYP450 Screening Kit, recombinant CYP2C19; type: in vitro ADME; conditions: recombinant enzyme; read-out: CYP2C19 inhibition IC50
T2 construct: purchased Thermo Fisher Scientific
T2 sequence (P33261 whole entry): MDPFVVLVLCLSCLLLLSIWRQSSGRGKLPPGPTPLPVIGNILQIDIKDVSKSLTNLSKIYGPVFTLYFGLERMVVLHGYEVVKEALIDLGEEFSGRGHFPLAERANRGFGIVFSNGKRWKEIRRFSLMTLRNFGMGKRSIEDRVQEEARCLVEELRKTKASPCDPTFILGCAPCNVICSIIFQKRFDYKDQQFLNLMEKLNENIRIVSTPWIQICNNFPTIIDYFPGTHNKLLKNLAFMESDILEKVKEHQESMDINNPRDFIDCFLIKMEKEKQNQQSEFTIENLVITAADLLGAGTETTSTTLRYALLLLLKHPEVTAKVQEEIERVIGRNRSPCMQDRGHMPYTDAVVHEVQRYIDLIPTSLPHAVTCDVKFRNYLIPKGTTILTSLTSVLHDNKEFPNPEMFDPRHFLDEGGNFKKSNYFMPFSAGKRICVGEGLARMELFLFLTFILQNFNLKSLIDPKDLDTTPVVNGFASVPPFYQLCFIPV
Procedure: as §1

A431-ABCC1 cells = assay: MTT proliferation assay (comparative viability); type: cell-based; conditions: single drug, 48 h
Procedure: These colorimetric assays were used in various studies presented in this paper (prior induction studies, MDR reversal experiments and comparative viability assays) and were performed as reported previously. […] In MTT experiments, cells were seeded on a 96-well culture plate at densities (in number of cells/well) of 1.3 × 10^4 for MDCKII-par, MDCKII-ABCB1 and MDCKII-ABCG2; 1.2 × 10^4 for A431-par, A431-ABCB1, A431-ABCG2 and A431-ABCC1; 1.2 × 10^4 for NCI-H1299; 1.0 × 10^4 for A459; 2.0 × 10^4 for Caco-2; 5.0 × 10^4 for LS174T; and 1.0 × 10^4 for primary NSCLC explants. On the other hand, for XTT cells were seeded with densities 2.0 × 10^4 for HL60-par, HL60-ABCB1, HL60-ABCG2 and HL60-ABCC1 cells/well on 96-well plates. […] Following 48 h incubation with drugs, Opti-MEM solutions of MTT or XTT (1 mg/mL) with phenazine methosulfate solution (7.50 μg/mL; only for XTT) was added and the cells were incubated for 1 h with the exception of HL60s that were incubated for 5 h.

ABCB1 = ABCB1 (Homo sapiens, UniProt P08183); assay: MDCKII cellular monolayer transport assay; type: in vitro ADME; conditions: 1 µM tepotinib, 4 h, asymmetry aborted by 1 µM LY335979
Chain of ABCB1 (P08183 whole entry): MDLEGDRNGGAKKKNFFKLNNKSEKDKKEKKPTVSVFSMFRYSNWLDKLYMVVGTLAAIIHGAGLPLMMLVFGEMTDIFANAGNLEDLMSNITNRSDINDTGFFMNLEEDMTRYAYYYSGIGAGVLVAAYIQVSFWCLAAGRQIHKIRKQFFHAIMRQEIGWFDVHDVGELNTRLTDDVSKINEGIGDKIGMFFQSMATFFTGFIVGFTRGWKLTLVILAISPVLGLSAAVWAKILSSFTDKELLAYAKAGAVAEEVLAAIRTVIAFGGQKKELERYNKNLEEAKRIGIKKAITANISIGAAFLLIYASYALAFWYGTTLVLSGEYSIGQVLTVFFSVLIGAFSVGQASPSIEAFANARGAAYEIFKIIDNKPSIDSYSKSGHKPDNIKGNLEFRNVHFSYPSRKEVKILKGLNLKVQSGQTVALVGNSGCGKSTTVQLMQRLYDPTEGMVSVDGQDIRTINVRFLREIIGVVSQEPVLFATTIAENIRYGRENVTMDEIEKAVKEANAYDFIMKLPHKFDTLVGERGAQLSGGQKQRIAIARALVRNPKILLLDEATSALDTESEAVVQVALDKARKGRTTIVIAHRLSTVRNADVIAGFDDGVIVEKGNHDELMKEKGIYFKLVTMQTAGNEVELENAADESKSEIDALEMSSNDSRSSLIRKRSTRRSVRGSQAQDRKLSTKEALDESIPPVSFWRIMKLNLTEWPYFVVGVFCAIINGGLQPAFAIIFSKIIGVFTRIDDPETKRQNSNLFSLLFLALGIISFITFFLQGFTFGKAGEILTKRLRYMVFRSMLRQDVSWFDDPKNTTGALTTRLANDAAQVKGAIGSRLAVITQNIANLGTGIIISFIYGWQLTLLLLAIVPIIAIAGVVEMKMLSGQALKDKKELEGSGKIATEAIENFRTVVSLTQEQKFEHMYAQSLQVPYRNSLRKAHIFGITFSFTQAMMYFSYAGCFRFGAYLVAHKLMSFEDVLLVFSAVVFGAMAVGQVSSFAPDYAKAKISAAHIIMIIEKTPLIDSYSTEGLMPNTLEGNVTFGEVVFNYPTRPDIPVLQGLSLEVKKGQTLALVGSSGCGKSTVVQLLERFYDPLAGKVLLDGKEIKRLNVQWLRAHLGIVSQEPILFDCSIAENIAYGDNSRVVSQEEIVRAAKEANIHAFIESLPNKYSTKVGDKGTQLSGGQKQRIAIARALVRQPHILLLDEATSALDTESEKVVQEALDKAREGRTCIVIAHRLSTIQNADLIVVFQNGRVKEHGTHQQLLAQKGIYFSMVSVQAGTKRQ
Procedure: (§2) This assay was performed as described previously. […] The Transwells were incubated until full confluence for 7 days with media replacement every 2 days. Prior addition of tested drugs, inserts were washed with 1 × PBS on both apical and basal sides. […] Samples were then collected from the acceptor chambers at 0.5, 1, 2 and 4 h intervals. Cellular monolayers’ integrity was verified using fluorescein isothiocyanate-labeled dextran (MW = 40 kDa) accepting leakage up to 5% per hour.

ABCC1 = ABCC1 (Homo sapiens, UniProt P33527); assay: MDCKII cellular monolayer transport assay; type: in vitro ADME; conditions: 1 µM tepotinib, 4 h
Chain of ABCC1 (P33527 whole entry): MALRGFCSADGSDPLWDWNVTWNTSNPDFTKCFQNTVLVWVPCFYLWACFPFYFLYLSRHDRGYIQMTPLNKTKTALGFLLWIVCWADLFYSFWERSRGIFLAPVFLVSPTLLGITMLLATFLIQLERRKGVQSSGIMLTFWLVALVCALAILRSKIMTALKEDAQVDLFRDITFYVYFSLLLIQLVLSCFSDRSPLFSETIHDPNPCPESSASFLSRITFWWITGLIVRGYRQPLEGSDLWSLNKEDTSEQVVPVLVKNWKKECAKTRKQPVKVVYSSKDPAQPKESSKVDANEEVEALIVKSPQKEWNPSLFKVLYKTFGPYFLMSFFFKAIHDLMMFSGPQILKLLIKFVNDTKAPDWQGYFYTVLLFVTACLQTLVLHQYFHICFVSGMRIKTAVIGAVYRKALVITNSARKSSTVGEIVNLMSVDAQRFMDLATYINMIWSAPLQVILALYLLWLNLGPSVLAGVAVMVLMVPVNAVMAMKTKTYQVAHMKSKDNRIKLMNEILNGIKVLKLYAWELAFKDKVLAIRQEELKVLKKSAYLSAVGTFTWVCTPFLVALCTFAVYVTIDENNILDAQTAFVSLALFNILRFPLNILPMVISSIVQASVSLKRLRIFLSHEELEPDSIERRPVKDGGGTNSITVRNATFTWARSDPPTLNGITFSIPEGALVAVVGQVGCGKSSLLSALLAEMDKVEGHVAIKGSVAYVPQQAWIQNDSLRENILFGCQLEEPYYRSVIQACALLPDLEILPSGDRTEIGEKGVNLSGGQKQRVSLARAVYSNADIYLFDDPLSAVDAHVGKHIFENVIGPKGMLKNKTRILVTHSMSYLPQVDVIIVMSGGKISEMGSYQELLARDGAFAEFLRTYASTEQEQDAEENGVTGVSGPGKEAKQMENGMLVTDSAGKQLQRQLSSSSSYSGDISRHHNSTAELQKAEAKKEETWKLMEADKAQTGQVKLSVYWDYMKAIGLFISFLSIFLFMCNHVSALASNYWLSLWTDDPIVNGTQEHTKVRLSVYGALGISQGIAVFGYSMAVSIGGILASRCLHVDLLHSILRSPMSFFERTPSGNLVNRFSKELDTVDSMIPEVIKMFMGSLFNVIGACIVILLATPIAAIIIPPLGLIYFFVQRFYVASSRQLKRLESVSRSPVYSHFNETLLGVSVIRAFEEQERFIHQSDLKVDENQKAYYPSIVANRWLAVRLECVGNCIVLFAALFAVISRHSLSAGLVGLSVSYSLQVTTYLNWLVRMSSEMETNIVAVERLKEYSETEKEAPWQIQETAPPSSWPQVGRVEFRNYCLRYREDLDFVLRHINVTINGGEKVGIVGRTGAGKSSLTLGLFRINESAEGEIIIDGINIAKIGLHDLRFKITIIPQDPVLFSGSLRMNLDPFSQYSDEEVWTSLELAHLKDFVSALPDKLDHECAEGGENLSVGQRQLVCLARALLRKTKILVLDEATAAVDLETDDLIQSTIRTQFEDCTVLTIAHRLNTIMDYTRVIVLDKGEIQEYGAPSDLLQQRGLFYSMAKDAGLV
Procedure: as §2

ABCG2 = target: T3, ABCG2 (Homo sapiens, UniProt Q9UNQ0); assay: MDCKII cellular monolayer transport assay; type: in vitro ADME; conditions: 1 µM tepotinib, 4 h
T3 sequence (Q9UNQ0 1-655): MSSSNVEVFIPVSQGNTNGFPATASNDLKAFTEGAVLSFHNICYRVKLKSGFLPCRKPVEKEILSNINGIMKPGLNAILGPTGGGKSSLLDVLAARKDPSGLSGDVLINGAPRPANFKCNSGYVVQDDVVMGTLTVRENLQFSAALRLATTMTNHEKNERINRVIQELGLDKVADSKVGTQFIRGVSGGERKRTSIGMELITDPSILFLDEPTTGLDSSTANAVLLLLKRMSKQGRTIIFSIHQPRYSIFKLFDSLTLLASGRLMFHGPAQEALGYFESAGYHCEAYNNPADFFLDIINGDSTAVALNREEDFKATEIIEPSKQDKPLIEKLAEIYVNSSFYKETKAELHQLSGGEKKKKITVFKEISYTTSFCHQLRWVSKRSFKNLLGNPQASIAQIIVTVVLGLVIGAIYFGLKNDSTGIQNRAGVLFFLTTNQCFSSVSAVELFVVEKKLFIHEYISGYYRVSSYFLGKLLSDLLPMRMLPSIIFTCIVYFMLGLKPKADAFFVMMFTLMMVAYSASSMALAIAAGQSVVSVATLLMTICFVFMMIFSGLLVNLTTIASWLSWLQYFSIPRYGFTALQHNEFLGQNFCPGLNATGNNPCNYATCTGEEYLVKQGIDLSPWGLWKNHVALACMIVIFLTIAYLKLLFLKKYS
Procedure: as §2

[1] = recommended dosing of 500 mg daily; read-out: steady state Cmax; cited from earlier work
CYP3A4 = conditions: DI study in healthy subjects; cited from earlier work
[2] = MTT proliferation / drug combination assay; conditions: human

T1 sequence (P20815 whole entry): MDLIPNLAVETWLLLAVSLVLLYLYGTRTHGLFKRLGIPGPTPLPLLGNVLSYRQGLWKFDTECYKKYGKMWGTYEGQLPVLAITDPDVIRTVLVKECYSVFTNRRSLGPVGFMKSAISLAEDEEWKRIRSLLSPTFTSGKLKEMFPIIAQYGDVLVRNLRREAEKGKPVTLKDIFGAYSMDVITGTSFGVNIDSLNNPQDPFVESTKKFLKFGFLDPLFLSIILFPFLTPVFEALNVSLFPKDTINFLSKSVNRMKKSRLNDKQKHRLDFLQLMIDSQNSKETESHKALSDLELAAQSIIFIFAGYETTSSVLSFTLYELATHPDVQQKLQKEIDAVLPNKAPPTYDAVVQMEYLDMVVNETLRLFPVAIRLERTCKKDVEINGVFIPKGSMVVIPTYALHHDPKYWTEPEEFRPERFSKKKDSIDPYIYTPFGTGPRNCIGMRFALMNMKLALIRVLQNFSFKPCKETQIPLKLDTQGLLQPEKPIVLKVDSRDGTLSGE

CN1CCC(COc2cnc(-c3cccc(Cn4nc(-c5cccc(C#N)c5)ccc4=O)c3)nc2)CC1 [tepotinib, Tepotinib]
pIC50 (CYP3A5): 4.41
pIC50 (CYP2C19): 4.77
pIC50 (A431-ABCC1 cells): 4.79
Substrate affinity for ABCB1 (transport asymmetry) (ABCB1): ABCB1 substrate
Substrate affinity for ABCC1 (ABCC1): No substrate affinities
Substrate affinity for ABCG2 (ABCG2): No substrate affinities
Cmax [1]: 2620 nM
Effect on CYP3A4 substrate midazolam (CYP3A4): failed to exert the effect
IC50 at 48 h [2]: 16.5 µM
